# Reference: patent publication US5498624A, “Selected pyrazolyl derivatives” (Monsanto Company, priority 1995, dated 1996)
# How the values were obtained:
# Assay type in all cases: in vivo
# Wheat Leaf Rust = Wheat Leaf Rust Foliar Assay (WLR Prot); details: 20 ppm foliar protectant
# Protocol: A) Pathogen/Inoculum Production--Urediospores of previously infected plants are collected using a small vacuum device and stored in glass vials at -2° C. Just before inoculation the requisite number of vials are warmed and the spores suspended in Soltrol, a light machine oil.
# (B) Host Propagation, (C) Compound Preparation and (D) Compound Application follow as per Example 1.
# E) Inoculation/Incubation--To inoculate the plants, the urediospore/Soltrol suspension, adjusted to 5×10^4 spores/ml, is applied in a light coating to the foliage, and the plants are placed in a mist tent for 12 to 18 hours at 20° C. in the dark. The test can then be returned to the previous growing conditions until foliar symptoms are evident and the plants can be assessed.
# F) Test Evaluation--About 7 days after the plants are removed from the mist tent, the rust lesions should be evident. Three leaves in each pot (replicate) are assessed for percent infection. Phytotoxicity and growth effects are also noted at this time.
# G) Data--Follows as per Example 1.
# Uncinula necator = assay: Vine Powdery Mildew Foliar Assay (VPM Prot); details: vine seedlings
# Protocol: A) Pathogen/Inoculum--Vine powdery mildew, caused by Uncinula necator, is an obligate parasite and must be maintained on a living host. Seedling leaves (2-5 leaf stage) of Vitis vinifera var. Carignane, are inoculated by brushing them with the leaves of infected plants. Incubation environment is the same as that described for incubation (Sec. D).
# B) Host Propagation- Approximately 60 gm of seed are removed from cold storage and soaked in water for 2-3 days with frequent (3 or more) water changes each day. They are then combined with 24 gm of vermiculite and 30 ml of distilled water and put into refrigeration for 4-5 weeks. After this `vernalization` period, they are planted, 3 seeds/pot, into individual 2.25" pots filled with a commercial potting mix. The pots are watered well, and placed into a growth chamber set at 24° C., 85% RH and a 12 hour photoperiod at 200-300 me/m^2 /sec. The seedlings are thinned to one seedling/pot approximately 14 days after planting. After four to five additional days, seedlings are moved to the greenhouse. Plants are ready for assay 4-6 weeks after planting.
# C) Test Compound Preparation
# 1) Experimental compounds--A final formulation of each of the compounds of the present invention in 20% acetone, 0.1% Tween®20 and 79.9% water is foliarly applied to the seedling vines at about 1.5 mls/pot (4 pots/treatment) using a DeVilbiss 152 sprayer at the rate of 100, 20 and 10 ppm. The seedlings have 2-4 true leaves at application. Treated pots are allowed to dry in a vented room and are then moved to the inoculation growth chamber (see Sec. D for settings).
# 2) Controls and standards--The commercial product RALLY=NOVA (myclobutanil)is used as an internal standard. Formulated myclobutanil 40 WP is applied at 100 and 20 ppm in water. Also included in the test is an inoculated control treatment (a water/acetone formulation blank).
# D) Inoculation/Incubation--Treated vines are inoculated 24 hours after chemical application. Several diseased leaves are removed from inoculum production plants and are very gently brushed on the leaves of the test plants. This gentle contact and agitation allows spores to be dislodged from diseased leaves and fall onto test plant leaves.
# The inoculation/incubation growth chamber is set at 24° C., 85% RH, and 12 hour photoperiod at 350 me/m^2 /sec.
# E) Evaluation--The test is rated 7-9 days after inoculation or upon maximum disease expression. Percent area infected with disease is determined for each replicate. Treatment means are calculated and percent disease control is determined by the formula "(control mean--treatment mean) * 100 / control mean". The untreated/inoculated control treatment is used for this calculation. […]
# Venturia inaequalis = assay: Apple Scab Foliar Assay (ASC Prot); details: apple seedlings
# Protocol: A) Host Propagation--Apple, var. McIntosh, are collected form trees in the field and stored in a cold room at 4° C. After a minimum of 60 days storage, seed are collected and germinated in vermiculite in 3 inch pots in a growth chamber set at 27° C. day and 23° C. night temperature. When seedlings have emerged and 2-3 true leaves formed, the seedling are transplanted into 4 inch square pots containing a soil medium consisting of commercial potting mix. Seedlings are grown in this medium to the 8-10 leaf stage for use in tests. Before each test, the petiole of the smallest unfolded leaf is marked, with this leaf and the immediate five older leaves sprayed and inoculated in the test. The petiole of the oldest sprayed and inoculated leaf is also marked. The marking facilitates data collection for specific leaves and identification of the application site.
# B) Test Compound Preparation--Compounds of the present invention are applied to the upper and lower leaf surfaces of the identified leaves at the rate of 100 and 20 ppm using a DiVilbiss Model 152 hand sprayer. Four plants per treatment are sprayed with 12 mls of spray solution which contains 40% acetone, 59.9% water, and 0.1% Triton B1956. Nova® (myclobutanil) is used as the commercial standard. It is suspended in water and applied at equivalent rates.
# C) Pathogen/Inoculum Production--Inoculum from the apple scab pathogen, Venturia inaequalis, is obtained directly by washing conidia off of scab lesions from leaves on apple seedlings or by use of previously collected conidial suspension that has been frozen in a glass vial at -80° C. Conidial suspension concentration is adjusted to approximately 1×10^5 spores/ml by dilution with a solution of 1% v/v V8 juice/water. […]
# D) Test Evaluation--Phytotoxicity data, and leaf burning, etc. is collected by treatment at the time of pathogen inoculation and at disease evaluation. Disease is evaluated on day 8-12 by estimating the amount of treated leaf tissue that is covered by apple scab lesions or symptoms. […] The percentage control is calculated as in the above examples.
Compound,WLR Prot percent disease control (Wheat Leaf Rust) [%],VPM Prot percent disease control (Uncinula necator; 20 ppm foliar protectant) [%],VPM Prot percent disease control (Uncinula necator; 100 ppm foliar protectant) [%],ASC Prot percentage control (Venturia inaequalis; 20 ppm foliar protectant) [%],ASC Prot percentage control (Venturia inaequalis; 100 ppm foliar protectant) [%],VPM Prot percent disease control (Uncinula necator; 10 ppm foliar protectant) [%]
"C[C@@H]1CCC[C@H](c2ccccc2NC(=O)c2cn(C)nc2C(F)F)C1 (relative stereo) [Number 2, 1H-pyrazole-4-carboxamide, 3-(difluoromethyl)-1-methyl-N-[2-(-3-methylcyclohexyl)phenyl]-, cis-]",96,76,91,58,99,
"C[C@H]1CCC[C@H](c2ccccc2NC(=O)c2cn(C)nc2C(F)F)C1 (relative stereo) [Number 3, 1H-pyrazole-4-carboxamide, 3-(difluoromethyl)-1-methyl-N-[2-(3-methylcyclohexyl)phenyl]-, trans-]",100,51,,90,,34
